Measured values taken from patent US20030022938A1, “N-fatty acid-amino acid conjugates and therapeutic uses” (priority 2001, published 2003).
“Also recorded” adds a separate entry of the source.

Legend:
[1] = system: IL-1β; test: IL-1β release from human peripheral blood monocytes (ELISA), LPS stimulated or not stimulated; type: cell-based; set-up: IL-lé release from PBM not stimulated with LPS (adherence only): dose or concentration left out as unconfirmed; conditions: for IL-lé secretion from LPS stimulated peripheral blood mononuclear cells: 60 min preincubation, LPS 10 ng/ml 18 hours; for IL-lé release from PBM not stimulated with LPS (adherence only): unstimulated cells, 18 hours
Description: Cells (2×106) were incubated for 60 minutes with either agent at the indicated concentrations. Vehicle (0.5% DMSO) treated cells served as controls. Cells were then not stimulated (FIG. 3A) or stimulated (FIG. 3B) with LPS (10 ng/ml) for 18 hours, at which time supernatant IL-lé was measured by ELISA. Values shown are the means obtained from triplicate samples (Control A=826 pg/ml; Control B=8.68±0.5 ng/ml).

[2] = system: human T lymphocytes; test: Proliferation of anti CD3, CD4 treated human T lymphocytes; type: cell-based; conditions: 0.1 to 1.0 mM, vs vehicle (DMSO)
[3] = system: IL-1β; conditions: concentrations of 1 μm and 10 μm; Burstein et al. 2000; cited from earlier work
[4] = system: human T-lymphocytes; test: PHA stimulated T-cell proliferation (BrDU incorporation); type: cell-based; conditions: 0.1-10 mM, PHA 10 ng/ml, 72 hours
Description: The cells were then stimulated with PHA (10 ng/ml) and incubated for 72 hours. A control set treated with NAGly/DMSO not stimulated with PHA was incubated in parallel. Cell numbers were determined by measuring BrDU incorporation for 24 hours. The values shown (see “PRO[…]” on the y-axis) are the ratios of the optical density readings from treated and control cells.
Cell proliferation in vitro was measured by incorporation of 5-bromo-2′-deoxyuridine (BrDU) instead of thymidine into the DNA of proliferating cells. […] Cells (2×10^5 per well) were then cultured in 96 well, flat bottomed microtiter plates and stimulated with PHA (10 ng/ml) or not stimulated. Cultures were maintained for 72 hours in a standard cell incubator at 37° C. BrDU was then added to all wells and cells are then reincubated for 24 hours. The medium was removed and the cells were fixed and DNA was denatured. Anti-BrDU-peroxidase was added and the immune complex was detected by substrate (tetramethylbenzidine) reaction. The reaction was stopped with […] sulfuric acid (1N) and the product was quantified by measuring the absorbance at 492 nm with reference at 650 nm. Absorbance correlated directly to the amount of DNA synthesis, and, thereby, to the number of proliferating cells in each culture.

[5] = system: formalin-induced pain behavior; test: Formalin test for pain reduction; type: in vivo; conditions: rats
Description: Rats received intraplantar injections of formalin in the hindpaw, and pain behavior consisting of lifting and licking of the injected paw was observed. Drug or co-vehicle was coinjected with the formalin solution (4.5% formalin in 10% DMSO, 100μl, s.c., ipl.).

[6] = system: arachidonic acid-induced paw edema; test: Arachidonic acid-induced paw edema test; type: in vivo, mice
Description: The conditions employed in the paw edema test have been previously described (Calhoun et al., Agents Actions, 21:306-309, 1987; Burstein et al., J. Pharmacology and Experimental Therapeutics, 251:531-535; Burstein et al., J. Med. Chem., 35:3135-41, 1992), with water being substituted for mercury as the displacement medium. Arachidonic acid (1.0 mg) in 25 μl of saline is injected subcutaneously into the plantar surface of the right hindpaw of ether-anesthetized CD-1 female mice (20-25 g) obtained from Charles River Laboratories. The volume of the right foot is then measured to the level of the lateral malleolus by water displacement before treatment and 30 minutes after arachidonic acid injection. An N-fatty acid-amino acid conjugate, in 50 μl of peanut oil, is given p.o. to the mice 30 min prior to the induction of edema by arachidonic acid. The change in paw volume is calculated for each mouse and the significance for each group can be determined by an ANOVA test.
The conditions were previously described by Calhoun et al. (Agents Actions, 21:306-309, 1987), and by Burstein et al. (J. Pharmacology and Experimental Therapeutics, 251:531-535; J. Med. Chem., 35:3135-41, 1992), with water being substituted for mercury as the displacement medium. Arachidonic acid (1.0 mg in 25μl of saline) was injected subcutaneously into the plantar surface of the right hindpaw of ether-anesthetized CD-1 female mice (20-25 g) obtained from Charles River Laboratories. The volume of the right foot was measured to the level of the lateral malleous by water displacement before treatment and 30 minutes after arachidonic acid injection. […] The change in paw volume was calculated for each mouse and the significance for each group was determined by an ANOVA test.

[7] = system: anandamide levels in RAW cells; test: Anandamide levels in intact cultured RAW cells (HPLC-MS/MS); type: cell-based, murine; set-up: elevation of basal concentrations of anandamide: dose or concentration left out as unconfirmed
Description: Cells were grown as described previously (Pestonjamasp and Burstein, Biochim Biophys Acta, 1394(2-3):249-60, 1998).

[8] = system: blood levels of anandamide; conditions: 10 mg/kg p.o., rats, 45 minutes post treatment, vs vehicle-treated
Description: Anandamide and NAGly levels were measured in plasma extracts by HPLC-MS/MS with d8-anandamide added as an internal standard. Reverse phase HPLC was performed on a 100×1 mm i.d. column packed with ODS Hypersil® (3 μm, 120 A pore size, Keystone Scientific, Inc., Bellefonte, Pa.). A Rheos® 2000 micro HPLC pumping system was used to pump the mobile phase (90% methanol, 10% 0.05% pH 5.7 aqueous ammonium acetate buffer) at 50μl/minute. The outlet from the column was connected directly to the electrospray ion source of a Finnigan® LCQ quadrupole ion trap mass spectrometry system. Positive ion electrospray ionization was used with the source at 4500 V, the capillary at 200° and the nitrogen sheath gas at a relative setting of 60. NAGly eluted at 1.4 minutes and was detected by MS2 of its MH+ion (m/z 362.2) with an isolation window of 2.5 Th and relative collision energy (CID) of 29%. Full product ion spectra were collected from m/z 95-370 and peak areas from ion plots of m/z 287.2 were used for quantitation. Anandamide and d8-anandamide were similarly detected using their MH+ions (m/z 348.2 and 356.2) as precursors with isolation windows of 2.5 Th and CID at 30%. […] Concentrations of NAGly and anandamide were calculated from their peak area ratios to the internal standard with reference to an external calibration curve. […]

[9] = system: arachidonic acid release in RAW cells; test: Arachidonic acid release in RAW cells; type: cell-based, murine
Description: Radiolabelled arachidonic acid was incorporated into the cellular lipid pools for 20 hours. […] Over the concentration range of 1.6-32 mM, a 300% increase in labeled, free arachidonic acid was found in the media when compared to vehicle treated control values. Media from cells in the control group contained 8,800±1600 dpm.
The cells were grown in MEM with 1% penicillin-streptomycin and 10% fetal bovine serum at 37° C. under 95% […]:5% carbon dioxide to about 85% confluence. Cells were contained in 24-well plates and labeled with 100,000 dpm/ml/well of ^3H or ^14C arachidonic acid at 37° C. for 20 hours (Pestonjamasp and Burstein, Biochim Biophys Acta, 1394(2-3):249-60, 1998). The wells were washed 4 times with 0.5% BSA in MEM followed by incubation in 1 ml 0.1% BSA-MEM for 60 minutes. […] Control values were obtained with 10 μl of vehicle. Media were collected, centrifuged at 3000×g to remove cells, and 0.1 ml withdrawn and assayed for radioactivity by liquid scintillation counting.

[10] = system: NF-κB; test: NFk-B inhibition studies in PBM (DNA binding, autoradiographic-PAGE); type: cell-based; conditions: 1 hour, then LPS 10 ng/ml 60 minutes; human PBM, two donors
Description: PBM from two donors were prepared and treated separately. Cell extracts were then obtained and analyzed for DNA binding of NF-kB, as determined by autoradiographic-PAGE measurement, according to the following method. […] Media were then removed and the cells were transferred to 1.5 ml microcentrifuge tubes and washed 2 times with ice cold PBS. After centrifugation at 10,000 rpm, PBS was removed and 0.5 ml of cytoplasmic extraction buffer (buffer A) was added to the cell pellet. Tubes were vortexed and placed on ice for 10 minutes, then centrifuged at 12,000 rpm for 5 minutes. Cells were washed once with buffer A, which was then added to previous cytosol extract fraction. Cytoplasmic extracts were saved at −80° C. until use. 0.1 ml of cold nuclear extraction buffer (buffer B) was then added to precipitated nuclei and incubated for 60-120 minutes in ice. Nuclear extracts were obtained by centrifugation at 12,000 rpm for 10 minutes and saved at −80° C. until use. (Extraction buffer A is a hypotonic solution and contains HEPES, KCl, EDTA, EGTA, DTT, PMSF, leupeptin, antipain, aprotinin, and NP-40 detergent. Extraction buffer B is a high salt buffer and contains all of the above agents plus glycerol.) The protein concentrations of the nuclear extracts were determined by the Bradford protein assay (Coumassie blue staining). […] Gels were scanned and analysed utilizing the Adobe software for PC.

[11] = system: RAW 264.7 murine monocyte cells; test: RAW cell proliferation (MTT assay); type: cell-based; conditions: 24 hours treatment; 25, 50 and 100 mM
Description: Cells were maintained in MEM containing 0.5% serum overnight. […] After a 24 hour incubation period, […] MTT (Sigma Co) solution (5 mg/ml in PBS) was added to each well and incubated for 2 hours at 37° C. Then, cells were triturated in 1.1 ml isopropanol MTT solubilization solution (Sigma Co). […] of this mixture was then transferred in duplicate to a 96 well plate and the optical density recorded using a ThermoMax® microplate reader at […] absorbance. Based on a standard curve with known numbers of cells, experimental readings were in the linear range for cell numbers.
Values shown in FIG. 5 are optical density readings obtained using the MTT assay and are directly proportional to the numbers of cells. They are the means of four replicates ± SD. […] The values shown are the optical density readings obtained from the MTT assay where a value of 0.5 is approximately equivalent to 2×10^4 cells. Vehicle treated cells served as the control and gave a reading of 0.396±0.047 O.D. units. The data shown is representative of three independent experiments.

[12] = system: human T lymphocytes; conditions: Burstein et al. 2000; cited from earlier work
[13] = 275 nmol coinjected with formalin

CCCCC/C=C\C/C=C\C/C=C\C/C=C\CCCC(=O)NCCO [anandamide, reference compound]
IL-lé secretion from LPS stimulated peripheral blood mononuclear cells [1]: smaller effect
IL-lé secretion from LPS stimulated peripheral blood mononuclear cells ([1]; listed as Anandamide): less effective than NAGly
IL-lé release from PBM not stimulated with LPS (adherence only) [1]: less effective than NAGly
proliferation of anti CD3, CD4 treated human T lymphocytes [2]: either no effect or a modest inhibition
proliferation of anti CD3, CD4 treated human T lymphocytes ([2]; listed as Anandamide): only inhibition
IL-1β secretion from stimulated human PBMC [3]: modestly suppress
proliferation of PHA stimulated T-cells (proliferation index) [4]: little or no effect
proliferation of PHA stimulated T-cells (proliferation index) ([4]; listed as Anandamide): no significant effects

CCCCC/C=C\C/C=C\C/C=C\C/C=C\CCCC(=O)O [arachidonic acid, reference compound]
pain suppression in the formalin test [5, 13]: Neither glycine nor arachidonic acid (275 nmol) suppressed pain

NCC(=O)O [glycine, reference compound]
pain suppression in the formalin test [5, 13]: Neither glycine nor arachidonic acid (275 nmol) suppressed pain

COc1ccc2c(c1)c(CC(=O)O)c(C)n2C(=O)c1ccc(Cl)cc1 [indomethacin, reference compound]
paw edema response of the reference NSAID ([6]; 0.2 mg/kg): equivalent response

Deuterated N-arachidonylglycine [d8-NAGly]
elevation of basal concentrations of anandamide [7]: 50%
increase in anandamide (unlabelled) ([7]; 10 mM deuterated NAGly): ~3 ng/mL
increase in d8-anandamide ([7]; 10 mM deuterated NAGly): < 0.5 ng/mL

N-arachidonyl glycine [NAGly]
rise in blood levels of anandamide [8]: nearly ten-fold rise
increase in labeled, free arachidonic acid in the media ([9]; 1.6-32 mM, 60 minutes, vs vehicle treated control): 300%
stimulation of arachidonic acid release ([9]; range of 2-32 mM): three fold stimulation
IL-lé secretion from LPS stimulated peripheral blood mononuclear cells [1]: more effective inhibitor than anandamide; also recorded: suppresses; also recorded: inhibitory in a dose-related fashion
IL-lé release from PBM not stimulated with LPS (adherence only) [1]: more effective inhibitor than anandamide; also recorded: striking reduction; also recorded: markedly reduces
elevation of basal concentrations of anandamide [7]: 50%
reduction of paw volumes ([6]; 4 mg/kg orally, vs vehicle treated): reduced paw volumes by one half
paw edema response compared with indomethacin ([6]; NAGly 4 and 40 mg/kg vs 0.2 mg/kg indomethacin): equivalent response
reduction of paw edema ([6]; doses of 4 and 40 mg/kg p.o., 30 min before arachidonic acid, vs untreated control mice that received only arachidonic acid): more than 50%
binding of NF k-B to DNA / NFk-B activation [10]: effectively reduces; also recorded: strong inhibitory effect
second phase (tonic pain) of the formalin response ([5]; 275 nmol coinjected with formalin, intraplantar): markedly suppressed
first phase (acute pain) of the formalin response ([5]; coinjected with formalin, intraplantar): no effect
inhibition of RAW cell proliferation (MTT optical density) [11]: dose-related inhibition; also recorded: Significant decreases in cell numbers; also recorded: significant inhibition of cell proliferation
proliferation of CD3-CD4 antibody-stimulated T-cells, prior observation [12]: biphasic effect
proliferation of anti CD3, CD4 treated human T lymphocytes [2]: inverse dose-related increase; also recorded: stimulatory at low concentrations and somewhat inhibitory at higher concentrations
IL-1β secretion from stimulated human PBMC [3]: modestly suppress
